{"source": "patent US12605362B2", "about": "“Eletriptan hydrobromide for treatment of spinal cord injury and improvement of locomotor function” (TECHNOPHAGE, INVESTIGAÇÃO E DESENVOLVIMENTO EM …, priority 2020, dated 2026)", "key": {"[1]": {"tested_on": "mice with T9 contusion type of injury", "assay": "Basso Mouse Scale (BMS) open-field locomotion after T9 contusion spinal cord injury", "assay_type": "in vivo", "experimental": "Adult female C57BL/6J mice (8-10 weeks-old; Charles River) were used in this study. The mice were housed three to four per cage and were maintained on a 12-hour light/dark cycle with food and water ad libitum for the duration of the study.\n(§1) A moderate-severe contusion-type of injury was performed on adult C57BL/6 female mice (10-12 weeks) with an Infinite Horizon Impactor (PSI)^30. All surgeries were performed under aseptic conditions. Briefly, under deep anesthesia with Ketamine and Xylazine (120 mg/kg and 16 mg/kg respectively, i.p.) mice received a dorsal laminectomy at the level of 9th thoracic vertebra (T9). After securing the lateral processes of the 8th thoracic vertebra (T8) and 10th thoracic vertebra (T10) with a stainless-steel impactor tip, a controlled force-defined impact at 75 kdyne was delivered to the exposed spinal cord^28,30. Then, muscle and skin were closed with 4.0 polyglycolic acid (PGA) absorbable sutures (Safil, G1048213). In this study, mice were excluded when the actual displacement value was outside the interval 500-700 μm or if the actual force after impact was >2SD 75 Kdyne. Immediately after injury, mice were injected subcutaneously with 0.5 ml of sterile saline and then daily for 5 days. During this experiment, mice underwent gentle bladder expression twice daily until they were voiding on their own. Weight was monitored daily until 15 days-post-injury (dpi) and then weekly for the duration of the study and a high caloric pellet (Supreme Mini-Treats™ S05478 and S05472) was provided as a dietary supplement since a 10% weight loss was typically observed in this SCI model upon injury.\nThe Eletriptan Hbr (Sigma-Aldrich, PZ0011) dosage used were equivalent to the human market dose^31 and all treatment dosages were aliquoted using a coded system to maintain double-blinded measures. This code was only unveiled at the end of all behavioural tests. Mice were randomly distributed to each experimental group (SCI+Vehicle and SCI+Eletriptan Hbr). Vehicle and Eletriptan Hbr were administered via intraperitoneal injection (i.p.), beginning 1 hour after injury (hpi) and then daily until 15 dpi.\nOpen-field locomotion was assessed with the BMS rating system^30,32. The open-field used was a round platform with 85 cm in diameter and 30.5 cm high, located in a quiet testing room with normal lighting. The mice were habituated to the testing platform for 5 minutes daily for 2 weeks before surgery. The BMS testing (BMS scoring and subscoring) was performed as previously described^28,30. Briefly, mice were tested before surgery, to obtain baseline pre-operation locomotion values, where it is expected a maximum S score value. To determine the functional recovery after treatment the BMS score of each mouse was evaluated at 1, 3, 7, 14 dpi and then weekly until the end of the experiments. The evaluation of BMS score and subscore was always performed by two raters who were blind to the treatment groups and scored hindlimb locomotion for 4 minutes per mouse. If the scores differed between raters, the final score taken was the average of both scores.\nTo validate the therapeutic effect of Eletriptan Hbr for SCI indication in a non-regenerative model, it was decided to test its efficacy in a SCI rodent model. Therefore, a contusion type of injury was performed in C57BL/6 female mice, using an Infinite Horizon (IH) Impactor and the Basso Mouse Scale (BMS) test^32 was used to evaluate the locomotor performance of the animals after injury. First, mice were habituated to the open-field platform and after 15 days they were injured with a moderate-severe T9 contusion (75 kdyne) (FIG. 2A). Immediately after injury and upon biomechanical exclusion criteria, mice were randomly distributed to each experimental group (SCI+Vehicle and SCI+Eletriptan Hbr). Treatment dosages (Vehicle or Eletriptan Hbr) were administered via intraperitoneal (i.p.) injection, beginning 1 hour-post-injury (1hpi), and then daily until 15 dpi (FIG. 2A). […]"}, "[2]": {"tested_on": "mice with T9 contusion type of injury", "assay": "FluoroMyelin Green staining and white matter sparing analysis", "assay_type": "in vivo", "details": "42 dpi; at lesion epicentre and over 700 μm rostrally and caudally, vs Vehicle", "experimental": "as §1, with “In this study, mice were excluded when the actual displacement value was outside the interval 500-700 μm or if the actual force after impact was >2SD 75 Kdyne. Immediately after injury, mice were injected subcutaneously with 0.5 ml of sterile saline and then daily for 5 days. During this experiment, mice underwent gentle bladder expression twice daily until they were voiding on their own.” left out, “injury. […]” for “injury.”\nTo quantify demyelination, one set of sections spaced 100 μm apart and spanning the entire block was stained with FluoroMyelin™ Green (ThermoFisher Scientific, F34651) for 1 hour. Z-stack compositions were acquired in a motorized inverted widefield fluorescence microscope (Zeiss Cell Observer, Carl Zeiss MicroImaging) with 10× magnification. […]"}, "5-HT1B": {"molecular_target": "5-HT1B (Homo sapiens, UniProt P28222)", "sequence (P28222 whole entry, species assumed)": "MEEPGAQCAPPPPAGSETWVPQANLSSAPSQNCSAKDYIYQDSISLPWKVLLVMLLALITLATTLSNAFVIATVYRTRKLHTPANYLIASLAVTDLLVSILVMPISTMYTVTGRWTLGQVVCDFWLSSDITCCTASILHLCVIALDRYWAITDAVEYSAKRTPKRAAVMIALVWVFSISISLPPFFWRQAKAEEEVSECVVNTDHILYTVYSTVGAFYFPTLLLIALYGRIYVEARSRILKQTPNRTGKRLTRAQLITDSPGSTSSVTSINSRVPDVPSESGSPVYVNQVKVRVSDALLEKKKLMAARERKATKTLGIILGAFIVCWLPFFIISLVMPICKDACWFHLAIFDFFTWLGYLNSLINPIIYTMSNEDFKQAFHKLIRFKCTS", "details": "serotonin receptor agonist; cited from earlier work"}, "5-HTIF": {"molecular_target": "T1, 5-HTIF (Homo sapiens, UniProt P30939)", "T1 sequence (P30939 1-366)": "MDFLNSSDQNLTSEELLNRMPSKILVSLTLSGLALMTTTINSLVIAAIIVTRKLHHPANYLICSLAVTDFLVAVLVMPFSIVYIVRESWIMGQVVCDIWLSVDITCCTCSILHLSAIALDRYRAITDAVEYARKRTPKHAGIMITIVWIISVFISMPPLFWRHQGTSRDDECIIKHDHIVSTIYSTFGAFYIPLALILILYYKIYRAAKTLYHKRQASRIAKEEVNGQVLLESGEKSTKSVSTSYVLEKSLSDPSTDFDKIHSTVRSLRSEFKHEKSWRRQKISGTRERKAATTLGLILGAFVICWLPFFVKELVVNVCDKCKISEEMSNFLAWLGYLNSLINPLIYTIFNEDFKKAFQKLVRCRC", "details": "serotonin receptor agonist; cited from earlier work"}}, "note": "Structures can show the parent of a compound that is named as a salt."}
{"smiles": "CN1CCC[C@@H]1Cc1c[nH]c2ccc(CCS(=O)(=O)c3ccccc3)cc12", "note": "[Eletriptan Hbr, Eletriptan Hydrobromide]", "values": [{"measurement": "animals that acquired a mild trunk stability", "setting": "[1]; 42 dpi", "result": 46, "unit": "%"}, {"measurement": "mice with frequent plantar stepping with parallel placement of both hindlimb paws at initial contact", "setting": "[1]; 42 dpi", "result": 85, "unit": "%"}, {"measurement": "mice with parallel placement of at least one of the hindlimb paws at lift off", "setting": "[1]; 42 dpi", "result": 23, "unit": "%"}, {"measurement": "events that block the walking movement such as spasms and but downs", "setting": "[1]; 42 dpi, observed during BMS testing, vs Vehicle", "result": "less events"}, {"measurement": "mice that achieved a BMS score of 5 (frequent or consistent plantar stepping)", "setting": "[1]; 42 dpi, of thirteen treated mice", "result": "twelve"}, {"measurement": "mice that achieved a BMS score of 6 (frequent plantar stepping with some fore-hindlimb coordination)", "setting": "[1]; 42 dpi, thirteen treated mice", "result": "one out of thirteen"}, {"measurement": "average BMS subscores compared to Vehicle-treated mice", "setting": "[1]; from 7 to 42 dpi", "result": "consistently higher"}, {"measurement": "average BMS subscores compared to Vehicle-treated mice", "setting": "[1]; from 35 dpi to 42 dpi", "result": "significantly higher"}, {"measurement": "time at which average BMS scores reached a plateau", "setting": "[1]; i.p. from 1 hpi, daily until 15 dpi", "result": "28-35 dpi"}, {"measurement": "BMS scores over time compared to Vehicle-treated mice", "setting": "[1]; i.p. from 1 hpi, daily until 15 dpi, 1 to 42 dpi", "result": "consistently but not significantly higher"}, {"measurement": "spared white matter per total cross-sectional area", "setting": "[2]", "result": "not significantly but consistently higher"}, {"measurement": "affinity", "setting": "5-HT1B", "result": "high affinity"}, {"measurement": "affinity", "setting": "5-HTIF", "result": "high affinity"}]}
